The source of these data is patent US20260200897A1, “4-((5-(3-(4-(PYRIDIN-2-YL)CYCLOPENTYL)-1H-PYRAZOL-3-YL)AMINO)-BENZENESULFONAMIDE DERIVATIVES AND SIMILAR COMPOUNDS AS CDK INHIBITORS FOR THE TREATMENT OF CANCER” (BeOne Medicines I GmbH, priority 2023, published 2026).

A word on the IC50: it is the concentration that gives 50% inhibition.

One experiment concerns the target CDK2/Cyclin E1 (Homo sapiens, UniProt P24941). The experiment in a line: CDK2/Cyclin E1 TR-FRET biochemical assay, 1 mM ATP. The following applies: 0.15 μM Rb (Ser780)-biotin substrate, 90 min reaction, Table 2. The procedure:
(§1) Compounds disclosed herein were tested for inhibition of CDK2/Cyclin E1 or CDK1/Cyclin B kinase in an assay based on the time-resolved fluorescence-resonance energy transfer (TR-FRET) methodology. The assay was carried out in 384-well low volume black plates in a reaction mixture containing CDK2/Cyclin E1 or CDK1/Cyclin B1, 1 mM ATP for CDK2/Cyclin E1 and CDK1/Cyclin B1, 0.15 μM Rb (Ser780)-biotin substrate and 0-10 μM compound in buffer containing 50 mM HEPES pH7.0, 0.02% NaN3, 0.01% BSA, 0.1 mM Orthovanadate, 50 mM MgCl2, 1 mM DTT and 0.005% Tween-20. The kinase was incubated with compound for 60 minutes at room temperature and the reaction was initiated by the addition of ATP and Rb (Ser780)-biotin substrate. After reaction at room temperature for 90 minutes, an equal volume of stop/detection solution was added according to the manufacture's instruction (Cisbio Bioassays). The stop/detection solution contained Streptavidin-XL665 and Anti-pRb (Ser780) mAb-Eu Cryptate in Detection buffer (Cisbio Bioassays). Plates were incubated at room temperature for 60 minutes, and the TR-FRET signals (ex337 nm, em665 nm/620 nm) were recorded on a PHERAstar FSX plate reader (BMG Labtech). The inhibition percentage of CDK2/Cyclin E1 or CDK1/Cyclin B1 kinase activity in presence of increasing concentrations of compounds was calculated based on the ratio of fluorescence at 665 nm to that at 620 nm. The IC50 for each compound was derived from fitting the data to the four-parameter logistic equation by Dotmatics.

For a further experiment, the target named is CDK1/Cyclin B1 (Homo sapiens, UniProt P06493). Description: CDK1/Cyclin B1 TR-FRET biochemical assay, 1 mM ATP. The conditions noted are these: 0.15 μM Rb (Ser780)-biotin substrate, 90 min reaction, Table 2. The procedure:
as §1
(TR-FRET usually uses a lanthanide donor and a delayed reading to cut background.)

Chain of CDK1/Cyclin B1 (P06493 whole entry): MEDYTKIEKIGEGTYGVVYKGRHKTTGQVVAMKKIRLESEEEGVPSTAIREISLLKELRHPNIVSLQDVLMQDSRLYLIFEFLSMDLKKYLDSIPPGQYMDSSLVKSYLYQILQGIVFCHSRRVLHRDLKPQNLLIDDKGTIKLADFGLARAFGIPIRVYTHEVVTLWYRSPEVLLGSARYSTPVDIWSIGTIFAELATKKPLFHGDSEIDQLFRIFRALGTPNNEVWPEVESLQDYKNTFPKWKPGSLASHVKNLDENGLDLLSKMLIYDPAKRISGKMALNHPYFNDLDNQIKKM
Chain of CDK1/Cyclin B1 (P14635 whole entry partner): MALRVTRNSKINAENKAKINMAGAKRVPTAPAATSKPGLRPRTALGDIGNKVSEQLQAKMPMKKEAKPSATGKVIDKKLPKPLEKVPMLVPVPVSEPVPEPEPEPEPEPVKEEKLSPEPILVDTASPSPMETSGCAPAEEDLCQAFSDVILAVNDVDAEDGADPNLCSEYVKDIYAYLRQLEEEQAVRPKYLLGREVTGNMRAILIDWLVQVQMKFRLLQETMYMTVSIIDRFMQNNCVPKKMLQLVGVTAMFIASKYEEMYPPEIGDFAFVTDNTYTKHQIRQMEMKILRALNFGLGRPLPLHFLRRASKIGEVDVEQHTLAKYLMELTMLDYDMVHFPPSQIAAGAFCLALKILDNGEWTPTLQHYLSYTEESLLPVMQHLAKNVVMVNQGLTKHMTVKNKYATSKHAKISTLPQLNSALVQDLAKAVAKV

For the molecule `Cc1cccc(C2CCC(c3cc(Nc4ccc5c(c4F)CS(=O)(=O)N5)n[nH]3)C2)n1` (stereo not drawn) [Example 159, 4-fluoro-5-((5-(3-(6-methylpyridin-2-yl)cyclopentyl)-1H-pyrazol-3-yl)amino)-1,3-dihydrobenzo[c]isothiazole 2,2-dioxide], the IC50 was 1040 nM at CDK2/Cyclin E1 and > 10000 nM against CDK1/Cyclin B1.

As for `CC(C)(C)c1cc(O[C@@H]2CC[C@H](c3cc(Nc4ccc5c(c4F)CNS5(=O)=O)n[nH]3)C2)ncn1` (relative stereo) [Example 38, cis-5-((5-(3-((6-(tert-butyl)pyrimidin-4-yl)oxy)cyclopentyl)-1H-pyrazol-3-yl)amino)-4-fluoro-2,3-dihydrobenzo[d]isothiazole 1,1-dioxide], the IC50 was 2370 nM at CDK2/Cyclin E1 and > 10000 nM on CDK1/Cyclin B1.

`O=S1(=O)NCc2c1ccc(Nc1cc(C3CCC(c4ncc(C5CC5)o4)C3)[nH]n1)c2F` (stereo not drawn) [Example 116, 5-((5-(3-(5-cyclopropyloxazol-2-yl)cyclopentyl)-1H-pyrazol-3-yl)amino)-4-fluoro-2,3-dihydrobenzo[d]isothiazole 1,1-dioxide]: the results for the 50% inhibitory concentration (IC50) against CDK2/Cyclin E1 and on CDK1/Cyclin B1 were 98 nM and > 10000 nM, respectively.

Turning to `CC(C)(C)c1cnc(C2CCC(c3cc(Nc4cc5c(cc4F)S(=O)(=O)NC5)n[nH]3)C2)o1` (single isomer, unassigned) [Example 17c, 5-((5-(3-(5-(tert-butyl)oxazol-2-yl)cyclopentyl)-1H-pyrazol-3-yl)amino)-6-fluoro-2,3-dihydrobenzo[d]isothiazole 1,1-dioxide], the figures for the IC50 at CDK2/Cyclin E1 and against CDK1/Cyclin B1 were 102 nM and > 10000 nM, respectively.

With `CC(C)c1cnc(C2CCC(c3cc(Nc4ccc5c(c4F)CS(=O)(=O)N5)n[nH]3)C2)o1` (single isomer, unassigned) [Example 152a, cis-4-fluoro-5-((5-(3-(5-isopropyloxazol-2-yl)cyclopentyl)-1H-pyrazol-3-yl)amino)-1,3-dihydrobenzo[c]isothiazole 2,2-dioxide], the half-inhibitory concentration (IC50) against CDK2/Cyclin E1 was 2.8 nM; at CDK1/Cyclin B1 it was 238 nM.

Regarding `CC(C)c1cnc(C2CCC(c3cc(Nc4ccc5c(c4F)CNS5(=O)=O)n[nH]3)C2)o1` (single isomer, unassigned) [Example 109d, 4-fluoro-5-((5-(3-(5-isopropyloxazol-2-yl)cyclopentyl)-1H-pyrazol-3-yl)amino)-2,3-dihydrobenzo[d]isothiazole 1,1-dioxide], the IC50 against CDK2/Cyclin E1 is 158 nM; at CDK1/Cyclin B1, > 10000 nM.

As for `CC(C)(C)c1nnc([C@H]2CC[C@H](c3cc(Nc4ccc5c(c4F)CNS5(=O)=O)n[nH]3)C2)o1` (relative stereo) [Example 97, trans-5-((5-(3-(5-(tert-butyl)-1,3,4-oxadiazol-2-yl)cyclopentyl)-1H-pyrazol-3-yl)amino)-4-fluoro-2,3-dihydrobenzo[d]isothiazole 1,1-dioxide], the IC50 against CDK2/Cyclin E1 was 3180 nM; against CDK1/Cyclin B1, > 10000 nM.

Regarding `COC(=O)c1nc(C2CCC(c3cc(Nc4ccc5c(c4F)CNS5(=O)=O)n[nH]3)C2)oc1C(C)(C)C` (stereo not drawn) [Example 113, methyl 5-(tert-butyl)-2-(3-(3-((4-fluoro-1,1-dioxido-2,3-dihydrobenzo[d]isothiazol-5-yl)amino)-1H-pyrazol-5-yl)cyclopentyl)oxazole-4-carboxylate], the values for the IC50 on CDK2/Cyclin E1 and on CDK1/Cyclin B1 were 235 nM and > 10000 nM, respectively.

Turning to `CC(C)c1ncc(C2CCC(c3cc(Nc4ccc5c(c4F)CNS5(=O)=O)n[nH]3)C2)o1` (stereo not drawn) [Example 105, 4-fluoro-5-((5-(3-(2-isopropyloxazol-5-yl)cyclopentyl)-1H-pyrazol-3-yl)amino)-2,3-dihydrobenzo[d]isothiazole 1,1-dioxide], the results for the IC50 on CDK2/Cyclin E1 and on CDK1/Cyclin B1 were 812 nM and > 10000 nM, respectively.

With `CC(C)(O)c1cc(C2CCC(c3cc(Nc4ccc5c(c4F)CNS5(=O)=O)n[nH]3)C2)n[nH]1` (stereo not drawn) [Example 101, 4-fluoro-5-((5-(3-(5-(2-hydroxypropan-2-yl)-1H-pyrazol-3-yl)cyclopentyl)-1H-pyrazol-3-yl)amino)-2,3-dihydrobenzo[d]isothiazole 1,1-dioxide], the values for the IC50 against CDK2/Cyclin E1 and at CDK1/Cyclin B1 were 564 nM and > 10000 nM, respectively.

Consider `CC(C)c1cnc(C2CCC(c3cc(Nc4ccc5c(c4F)CCS(=O)(=O)N5)n[nH]3)C2)o1` (stereo not drawn) [Example 167, 5-fluoro-6-((5-(3-(5-isopropyloxazol-2-yl)cyclopentyl)-1H-pyrazol-3-yl)amino)-3,4-dihydro-1H-benzo[c][1,2]thiazine 2,2-dioxide], for which the results for the IC50 at CDK2/Cyclin E1 and at CDK1/Cyclin B1 were 8 nM and 1100 nM, respectively.

On to `CC(C)c1cnc(C2CCC(c3cc(Nc4ccc5c(c4F)CNS5(=O)=O)n[nH]3)C2)o1` (single isomer, unassigned) [Example 109b, 4-fluoro-5-((5-(3-(5-isopropyloxazol-2-yl)cyclopentyl)-1H-pyrazol-3-yl)amino)-2,3-dihydrobenzo[d]isothiazole 1,1-dioxide], for which the IC50 on CDK2/Cyclin E1 was 172 nM; against CDK1/Cyclin B1 it was > 10000 nM.

On to `CC(C)(C)c1nnc([C@@H]2CC[C@H](c3cc(Nc4ccc5c(c4F)CS(=O)(=O)N5)n[nH]3)C2)o1` (relative stereo) [Example 146, cis-5-((5-(3-(5-(tert-butyl)-1,3,4-oxadiazol-2-yl)cyclopentyl)-1H-pyrazol-3-yl)amino)-4-fluoro-1,3-dihydrobenzo[c]isothiazole 2,2-dioxide], for which the concentration for half-maximal inhibition (IC50) against CDK2/Cyclin E1 is 74 nM; against CDK1/Cyclin B1, > 10000 nM.

Consider `COc1cccc(C2CCC(c3cc(Nc4ccc5c(c4F)CS(=O)(=O)N5)n[nH]3)C2)n1` (stereo not drawn) [Example 160, 4-fluoro-5-((5-(3-(6-methoxypyridin-2-yl)cyclopentyl)-1H-pyrazol-3-yl)amino)-1,3-dihydrobenzo[c]isothiazole 2,2-dioxide], for which the half-maximal inhibitory concentration (IC50) was 868 nM at CDK2/Cyclin E1 and > 10000 nM against CDK1/Cyclin B1.

Consider `CC(C)(C)c1cnc(C2CCC(c3cc(Nc4cc5c(cc4F)S(=O)(=O)NC5)n[nH]3)C2)o1` (single isomer, unassigned) [Example 17b, 5-((5-(3-(5-(tert-butyl)oxazol-2-yl)cyclopentyl)-1H-pyrazol-3-yl)amino)-6-fluoro-2,3-dihydrobenzo[d]isothiazole 1,1-dioxide], for which the IC50 on CDK2/Cyclin E1 is 7710 nM; on CDK1/Cyclin B1, > 10000 nM.

Turning to `CC(C)(C)c1cncc(C2CCC(c3cc(Nc4ccc5c(c4F)CNS5(=O)=O)n[nH]3)C2)c1` (stereo not drawn) [Example 128, 5-((5-(3-(5-(tert-butyl)pyridin-3-yl)cyclopentyl)-1H-pyrazol-3-yl)amino)-4-fluoro-2,3-dihydrobenzo[d]isothiazole 1,1-dioxide], the IC50 at CDK2/Cyclin E1 is 1250 nM; against CDK1/Cyclin B1 it was > 10000 nM.

Take `Cc1nc(C2CCC(c3cc(Nc4ccc5c(c4F)CNS5(=O)=O)n[nH]3)C2)oc1C(C)(C)C` (stereo not drawn) [Example 111, 5-((5-(3-(5-(tert-butyl)-4-methyloxazol-2-yl)cyclopentyl)-1H-pyrazol-3-yl)amino)-4-fluoro-2,3-dihydrobenzo[d]isothiazole 1,1-dioxide]: the IC50 stood at 17 nM on CDK2/Cyclin E1 and 4470 nM at CDK1/Cyclin B1.

Take `CC(C)(C)c1cc(C2CCC(c3cc(Nc4ccc5c(c4F)CS(=O)(=O)N5)n[nH]3)C2)ccn1` (stereo not drawn) [Example 161, 5-((5-(3-(2-(tert-butyl)pyridin-4-yl)cyclopentyl)-1H-pyrazol-3-yl)amino)-4-fluoro-1,3-dihydrobenzo[c]isothiazole 2,2-dioxide]: the IC50 against CDK2/Cyclin E1 was 1060 nM; at CDK1/Cyclin B1 it was > 10000 nM.
